Measured values as given in paper PMC3150281, “Two Group A Streptococcal Peptide Pheromones Act through Opposing Rgg Regulators to Control Biofilm Development” (PLoS Pathogens, 2011).

Tests used:
Rgg3-Pshp2 DNA complex = test: EMSA, effect of peptide on Rgg3 binding to Pshp2 probe; design: species or system Streptococcus pyogenes NZ131; details: 2 µM pure (>95%) peptide added 20 min after 10 nM FAM probe; room temperature; native PAGE
Procedure: (§1) The NZ131 rgg3 gene (Spy 49_0449c) was amplified using gene-specific primers (rgg3_fwd_NdeI/rgg3_rev_BamHI) and cloned into a modified pET expression vector bearing N-terminal His-6 and SUMO tags; the resulting vector, pCA102, was electroporated into E. coli C41(DE3) before each purification. Expression of His6-sumo-rgg3 was induced at an OD600 of 0.8 with 0.5 mM IPTG for six hours at 30°C. Cells were pelleted and suspended in Buffer A (20 mM sodium phosphate buffer, pH 7.5; 1.5 mM MgCl2, 280 mM NaCl, 20 mM imidazole, 10 mM β-mercaptoethanol) with 0.1 mg mL^−1 lysozyme, 0.01 mg mL^−1 DNaseI (Sigma) and Complete EDTA-free protease inhibitor (Roche). Cells were disrupted by sonication on ice, and cellular debris was removed by centrifugation at 45,000 x g for 20 min at 4°C. His6-SUMO-Rgg3 was adsorbed to a HisTrap-HP Nickel column (GE Biosciences), then washed with 50 mM imidazole and eluted with 300 mM imidazole. The eluate was immediately exchanged into fresh Buffer A using a Zeba spin desalting column, 7K MWCO (Thermo Scientific). […]
(§2) All DNA fragments for EMSAs were amplified from chromosomal NZ131 DNA by PCR using primers described in Table S1, with select primers containing 5′-FAM fluorescent tags (Integrated DNA Technologies). […] All gel shifts were detected by fluorescence imaging using a Typhoon PhosphorImager (GE Life Sciences).

Pshp3 luxAB reporter = test: Luciferase reporter assay, Pshp3-luxAB, with synthetic peptides; format: cell-based, Streptococcus pyogenes NZ131; details: for Induction of luciferase at Pshp3 in wild-type bacteria: wild-type reporter strain JCC174 (mutated shp3 start codon); for Induction of luciferase at Pshp3 in wild-type bacteria / Induction of luciferase activity at Pshp3: 50 nM peptide in CDM; for Response at Pshp3 in Δrgg2 strain: Δrgg2 reporter strain JCC175; for Induction of luciferase activity at Pshp3: crude peptide (31-50% pure), DMSO vehicle control, representative of at least three experiments
Procedure: (§3) Figure 3 SHP stimulation of luciferase production. For panels A and C, overnight GAS cultures were diluted into CDM and followed for growth and light production over time. For panels B and D-H, reporter strains were grown to log-phase (OD600 between 0.3 and 0.5) and then diluted 13-fold into conditioned (panel B) or fresh CDM containing 50 nM of the indicated peptide (panels D-H). For all synthetic peptide experiments, DMSO was included as a vehicle control. Data shown are representative of at least three independent experiments. (A) Expression of shp3 under its own promoter from a multi-copy plasmid (pSHP3) induces luciferase expression at both Pshp2 (triangles) and Pshp3 (squares); pLZ12-Sp is the vector-only control. (B) Luciferase-inducing activity is present in a cell-free culture supernatant prepared from mid-log phase Δrgg3 donor (JCC131) but not in wild-type (NZ131) or Δrgg3-shp3 (JCC132)-conditioned supernatants; Δrgg3-shp3 (JCC159) was used as the reporter strain, and fresh medium was included as a control. (C) Luciferase activity of a Δrgg3-shp3 strain (JCC168) expressing truncated versions of shp3 indicates the importance of the C-terminus. All truncation plasmids were derived from pSHP3; pSHP3_17-23 includes a methionine to initiate translation. (D) Synthetic full-length (sSHP3) and C-terminal eight amino acids (sSHP3-C8), but not reverse peptide (sSHP3-rev), induce luciferase activity in a Δrgg3-shp3 reporter strain (JCC168). (E) Amino acid substitutions within the C-terminus of SHP3 alter its reporter-inducing activity in a Δrgg3-shp3 reporter strain (JCC168). sSHP3-C8: DIIIIVGG; the sequences of synthetic peptides with amino acids substitutions are shown in the panel legend. […] Reverse peptide (sSHP2-C8-rev) was included as a control. (G) sSHP3-C8 induces a sustained response from the Pshp2 reporter in the wild-type strain (BNL148), while luciferase activity of a Δrgg3-shp3 strain (BNL150) wanes. (H) Synthetic C8 peptides stimulate modest luciferase activity in Δrgg2 strains with integrated Pshp2 (solid lines; BNL152) or Pshp3 (dotted lines; JCC175) reporters.
(§4) For luciferase assays, isolated colonies from the strains of interest were picked from a freshly streaked plate, inoculated into THY broth and grown overnight at 30°C. In the morning, cells were diluted 100-fold into CDM and incubated at 37°C. At each time point, 50 µL of each culture was removed to an opaque 96-well plate, samples were exposed to decyl aldehyde (Sigma) fumes for one minute, and counts per second (CPS) were quantified using a Wallac 1450 microbeta scintillation counter; the optical density (OD) at 600 nm was also measured at each time point. Relative light units (RLU) were calculated by normalizing CPS to OD. For the conditioned media experiment, strains of interest were grown in CDM to an OD of 0.3 to 0.5, cells were spun down, and supernatants were passed through a 0.22 µm filter; log-phase Δrgg3-shp3 reporter cells (JCC159) were diluted 1∶12 into conditioned supernatants, and light activity and OD were monitored as described above. For experiments with synthetic peptides, reporter strains were grown to an OD of 0.3 to 0.5 and then diluted into fresh CDM containing the peptide of interest, and light activity and OD were monitored as described above.
Synthetic peptides were purchased from Neo-Peptide (Cambridge, MA). Purities of crude preparations used in luciferase assays ranged from 31% to 50%. 95% pure preparations were used for electrophoretic mobility shift assays (EMSA) as described below. All peptides were reconstituted as 2 mM stocks in DMSO and stored in aliquots at -80°C. Subsequent dilutions for working stocks (50 µM) were made in DMSO and stored at −20°C.

Rgg3-Pshp3 DNA complex = test: EMSA, effect of peptide on Rgg3 binding to Pshp3 probe; design: species or system Streptococcus pyogenes NZ131; details: 2 µM pure (>95%) peptide added 20 min after 10 nM FAM probe; room temperature; native PAGE
Procedure: as §1, §2

[1] = tested on: GAS NZ131 biofilm biomass; test: Biofilm assay, crystal violet staining; format: cell-based, Streptococcus pyogenes NZ131; details: 50 nM peptide
Procedure: Figure 6 Influence of Rgg regulators on biofilm production. SHPs can enhance biofilm biogenesis via the Rgg2/3 regulatory circuit and counter biofilm disassembly promoted by RopB. Crystal violet staining was performed to measure biofilm biomass of NZ131 derivatives grown 48 hours in 24-well polystyrene plates with (dark gray bars) or without (light gray bars) the addition of 50 nM sSHP3-C8. Levels of biofilm production were normalized to that of untreated NZ131 (wild type). Error bars indicate standard error from a minimum of three independent experiments.
Assays were performed as described by Manetti et al, with slight modifications. Briefly, each strain was grown overnight in THY at 30°C, diluted 1∶10 into fresh CDM, and 0.5 mL volumes were aliquoted to three separate wells of a 24-well polystyrene plate. When indicated, synthetic peptide was added to a final concentration of 50 nM. Plates where incubated at 37°C with 5% CO2 for 24 hours, then wells were washed with PBS and fresh CDM (containing peptide, if appropriate) was added. After an additional 24 hours of growth, each well was washed three times with PBS and stained with 0.2% crystal violet for 10 min. Excess crystal violet was aspirated off, and biofilms were washed three times with PBS. The biomass was then suspended in 1% SDS, and the absorbance at 540 nm was measured. Each strain was tested a minimum of three independent times on separate days, and each trial included NZ131 as the reference strain.

Pshp2 luxAB reporter = test: Luciferase reporter assay, Pshp2-luxAB, with synthetic peptides; format: cell-based, Streptococcus pyogenes NZ131; details: for Induction of luciferase at Pshp2 in wild-type bacteria: wild-type reporter strain BNL148, 50 nM peptide in CDM; for Maximal induction at Pshp2 in Δrgg2 strain: Δrgg2 reporter strain BNL152
Procedure: as §3, §4
Synthetic peptides were purchased from Neo-Peptide (Cambridge, MA). Purities of crude preparations used in luciferase assays ranged from 31% to 50%. […]

[2] = tested on: Rgg3 (Streptococcus pyogenes NZ131 (serotype M49)); test: EMSA; details: 20 mM HEPES pH 7.9, 100 mM KCl, 12.5 mM MgCl2, 0.2 mM EDTA, 0.5 mM DTT, 0.5 mM CaCl2, 50 ug/mL salmon sperm DNA, 0.001 U/uL poly(dI-dC), 100 ug/mL BSA, 12% …
[3] = Δrgg3-shp3 reporter strain JCC168

## DIIIIVGG [sSHP3-C8, synthetic peptide containing the C-terminal eight amino acids of SHP3 (DIIIIVGG)]
Rgg3-Pshp2 DNA complex
  Disruption of Rgg3 binding to Pshp2 DNA: Rgg3-DNA complexes were disrupted
Pshp3 luxAB reporter
  Induction of luciferase at Pshp3 in wild-type bacteria: stimulate induction and cross-induction
Pshp3 luxAB reporter; ΔoppD reporter strain JCC163, 50 nM peptide, response restored by pOppD
  Response of Pshp3 reporter in ΔoppD mutant: fails to respond
Pshp3 luxAB reporter; 50 nM peptide
  Response at Pshp3 in Δrgg2 strain: no response
Pshp3 luxAB reporter; [3]
  Induction of luciferase activity at Pshp3: Luciferase induction was also observed
Pshp3 luxAB reporter; Δrgg3-shp3 reporter strain JCC168, Pshp3, 50 nM peptide
  Reporter induction relative to sSHP3 at identical molar concentrations: more than 10 fold
Rgg3-Pshp3 DNA complex
  Disruption of Rgg3 binding to Pshp3 DNA: Rgg3-DNA complexes were disrupted
[1]; 48 hours in CDM, 24-well polystyrene plates, normalized to untreated NZ131, minimum of three experiments
  Biofilm formation, wild-type NZ131: two-fold increase
[1]; ΔoppD (JCC135), 48 hours, crystal violet
  Biofilm production, ΔoppD mutant: could not stimulate biofilms
[1]; Δrgg2 (JCC137), 48 hours, crystal violet
  Biofilm production, Δrgg2 mutant: could not stimulate biofilms
[1]; Δrgg3 (JCC131), 48 hours, crystal violet
  Biofilm production, Δrgg3 mutant: did not further enhance biofilms
[1]; Δrgg3-shp3 (JCC132), 48 hours, crystal violet
  Biofilm production, Δrgg3-shp3 mutant: partially complemented
[1]; ΔropB (BNL146), 48 hours, crystal violet
  Biofilm biomass, ΔropB strain: increased six-fold
Pshp2 luxAB reporter
  Induction of luciferase at Pshp2 in wild-type bacteria: stimulate induction and cross-induction
Pshp2 luxAB reporter; 50 nM peptide
  Maximal induction at Pshp2 in Δrgg2 strain: ~40 fold
Pshp2 luxAB reporter; Δrgg3-shp3 reporter strain BNL150, 50 nM peptide, compared with wild type BNL148
  Luciferase activity at Pshp2 over time in Δrgg3-shp3 strain: wanes

## NIIIIVGG [sSHP3-C8 with aspartic acid replaced by asparagine]
Pshp3 luxAB reporter; [3]
  Induction of luciferase activity at Pshp3: decreased activity

## sSHP2-C8: synthetic C-terminal eight amino acids of SHP2 (DILIIVGG)
Rgg3-Pshp2 DNA complex
  Disruption of Rgg3 binding to Pshp2 DNA: only induced a small amount of disruption
Pshp3 luxAB reporter
  Induction of luciferase at Pshp3 in wild-type bacteria: stimulate induction and cross-induction
Pshp3 luxAB reporter; 50 nM peptide
  Response at Pshp3 in Δrgg2 strain: no response
Rgg3-Pshp3 DNA complex
  Disruption of Rgg3 binding to Pshp3 DNA: only induced a small amount of disruption
Pshp2 luxAB reporter
  Induction of luciferase at Pshp2 in wild-type bacteria: stimulate induction and cross-induction
Pshp2 luxAB reporter; 50 nM peptide
  Maximal induction at Pshp2 in Δrgg2 strain: 7 fold

## EIIIIVGG [sSHP3-C8 with aspartic acid substituted by glutamate]
Pshp3 luxAB reporter; [3]
  Induction of luciferase activity at Pshp3: retained full activity

## -IIIIVGG [sSHP3-C8 without the N-terminal aspartic acid]
Pshp3 luxAB reporter; [3]
  Induction of luciferase activity at Pshp3: complete loss of luciferase activity

## Pshp2 probe
[2]
  K half: 100 nM

## Pshp3 probe
[2]
  K half: 100 nM

## DIIIIVG- [sSHP3-C8 without the C-terminal glycine]
Pshp3 luxAB reporter; [3]
  Induction of luciferase activity at Pshp3: significantly decreased light activity
